Data as given in patent US6310177A, “Compounds and methods for modulating tissue permeability” (Adherex Technologies, Inc., priority 2000, dated 2001).
Where a SMILES comes first, the peptide text is derived from it. Bridges are numbered along the chain shown (N, C = ends).

What was measured:
[1] = system: endothelial cell permeability in vivo; assay: Miles assay for vascular permeability; conditions: rat, 100 μl subdermal injection of 100 μg/ml peptide in PBS, Evans blue i.v. 15 min later; for dye extracted from excised injection sites (optical density of dimethylformamide extracts at 620 nm): 24 h extraction, FIG. 6 and FIG. 8; for accumulation of Evans blue at the injection sites (visual): read 15 min after dye, FIG. 5
Protocol: The ability of an agent to modulate cell adhesion may generally be evaluated in vivo by assessing the effect on vascular permeability utilizing the Miles assay (McClure et al., J. Pharmacological& Toxicological Methods 32:49-52, 1994). Briefly, a candidate modulating agent may be dissolved in phosphate buffered saline (PBS) at a concentration of 100 μg/ml. Adult rats may be given 100 μl subdermal injections of each peptide solution into their shaved backs, followed 15 minutes later by a single 250 μl injection of 1% Evans blue dissolved in PBS into their tail veins. The subdermal injection sites may be visually monitored for the appearance of blue dye. Once the dye appears (about 15 minutes after injection), each subdermal injection site may be excised, weighed, and placed in 1 ml dimethylformamide for 24 hours to extract the dye. The optical density of the dye extracts may then be determined at 620 nm. In general, the injection of 0.1 ml of modulating agent (at a concentration of 0.1 mg/ml) into the backs of rats causes an increase of dye accumulation at the injection sites of at least 50%, as compared to dye accumulation at sites into which PBS has been injected.
This Example illustrates a vasopermeability assay for evaluating the effects of occludin-modulating agents on endothelial cell permeability in vivo.
The ability of cyclic and linear peptides to increase vascular permeability was assessed utilizing the Miles assay (McClure et al., J. Pharmacological& Toxicological Meth. 32:49-521994). The peptides were dissolved in phosphate buffered saline (PBS) at a concentration of 100 μg/ml. Adult rats were given 100 μl subdermal injections of each peptide solution into their shaved backs, followed 15 minutes later by a single 250 μl injection of 1% Evans blue dissolved in PBS into their tail veins. The subdermal injection sites were visually monitored for the appearance of blue dye. Once the dye appeared (15 minutes after injection), each subdermal injection site was excised, weighed, and placed in 1 ml dimethylformamide for 24 hours to extract the dye. The optical density of the dye extracts was determined at 620 nm. The effects of injecting either phosphate buffered saline, phosphate buffered saline containing acetyl-QYLYHYCVVD-NH2 (SEQ ID NO:2) H-QYLYHYCVVD-NH2 (SEQ ID NO:2), or H-QYLYHYCVVD-OH (SEQ ID NO:2) into sites along the shaved back of a rat on the accumulation of Evans blue at the injection sites is shown in FIG. 5.

[2] = system: Human aortic endothelial cells (HAEC); assay: Endothelial cell adhesion assay with occludin and VE-cadherin immunolocalization; type: cell-based; conditions: 1 hour
Excerpt: The effect of a modulating agent on endothelial cell adhesion may generally be evaluated using immunolocalization techniques. Human aortic endothelial cells (HAEC) may be cultured on fibronectin-coated coverslips (fibronectinmay be obtained from Sigma, St. Louis, Mo.) according to the procedures of Jaffe et al., J. Clin. Invest. 52:2745-2756, 1973. Briefly, human endothelial cells may be maintained in EGM (endothelial cell growth medium; Clonetics, San Diego, Calif.) and used for experiments at passage 4. Confluent cultures of HAEC may be exposed to either a candidate modulating agent (final concentration 100 μg/ml EGM), or EGM alone for 1 hour. The cells are then be fixed for 30 minutes at 4° C. in 95% ethanol, followed by fixation in acetone for 1 minute at 4° C. (Furuse et al., J. Cell Biol. 123:1777-1788, 1993). After fixation, the cells may be probed with either mouse anti-VE-cadherin antibodies (Hemeris, Sassenage, France; diluted 1:250 in 0.1% dried skim milk powder dissolved in PBS), or rabbit anti-occludin antibodies (Zymed, South San Francisco, Calif.; diluted 1:300 in 0.1% dried skim milk powder dissolved in PBS) for 1 hour at 37° C. The cells may then be washed with 0.1% dried skim milk powder dissolved in PBS (three washes, 5 minutes/wash), and probed with secondary antibodies (donkey anti-mouse Cy3, or donkey anti-rabbit Cy5 diluted 1:250 in 0.1% dried skim milk powder dissolved in PBS; Jackson Immunoresearch Laboratories Inc., Westgrove, Pa.) for 1 hour at 37° C. The cells may then be washed again with in 0.1% dried skim milk powder dissolved in PBS and mounted in a solution composed of 50% glycerol and 50% PBS to which phenylenediamine (Sigma, St. Louis, Mo.) has been added to a final concentration of 1 mg/ml. The sample may then be analyzed using a Bio-Rad MRC 1000 confocal microscope with Laser Sharp software version 2.1T (Bio-Rad, Hercules, Calif.). In general, 0.1 mg/ml of modulating agent results in the appearance of intercellular gaps within the monolayer cultures and a decrease of at least 50% in the surface expression of occludin and VE-cadherin, as compared to monolayer cultures that were not exposed to the modulating agent.
This Example illustrates an endothelial cell adhesion assay for evaluating the effects of occludin-modulating agents on endothelial cell adhesion.
Human aortic endothelial cells (HAEC) were cultured on fibronectin (Sigma, St. Louis, Mo.) according to the procedures of Jaffe et al., J. Clin. Invest. 52:2745-2756, 1973. Cells were maintained in EGM (endothelial cell growth medium; Clonetics, San Diego, Calif.) and used for experiments at passage 4.
HAEC were cultured on fibronectin-coated coverslips. Confluent cultures of HAEC were exposed to linear peptides (final concentration 100 μg/ml EGM), or EGM alone for 1 hour. […]

[3] = HAEC, 100 μg/ml peptide, immunofluorescence, vs untreated cells

| Compound | dye extracted from excised injection sites (optical density of dimethylformamide extracts at 620 nm) [1] | accumulation of Evans blue at the injection sites (visual) [1] | surface expression of VE-cadherin [2, 3] | surface expression of occludin [2, 3] | endothelial cell adhesion (retraction of cells, gaps between cells) ([2]; confluent HAEC monolayers, 100 μg/ml peptide in EGM, vs untreated cells, FIG. 4) | formation of cobblestone-like monolayers ([2]; confluent HAEC, 100 μg/ml peptide, FIG. 4B) |
| --- | --- | --- | --- | --- | --- | --- |
| CC(C)C[C@@H]1NC(=O)[C@@H](N)CSSC[C@@H](C(=O)O)NC(=O)[C@H](Cc2ccc(O)cc2)NC(=O)[C@H](Cc2c[nH]cn2)NC(=O)[C@H](Cc2ccc(O)cc2)NC1=O [H-CLYHYC-OH] (H-CLYHYC-OH; disulfide 1-6) | more dye was extracted |  |  |  |  |  |
| H-QYLYHYCVVD-NH2 [H-QYLYHYCVVD-NH2] | more dye was extracted from the sites injected with H-QYLYHYCVVD-OH | more blue dye has accumulated at the sites where the peptide H-QYLYHYCVVD-OH |  |  |  |  |
| CC(=O)N[C@H]1CSSC[C@@H](C(N)=O)NC(=O)[C@H](Cc2ccc(O)cc2)NC(=O)[C@H](Cc2c[nH]cn2)NC(=O)[C@H](Cc2ccc(O)cc2)NC(=O)[C@H](CC(C)C)NC1=O [acetyl-CLYHYC-NH2] (Ac-CLYHYC-NH2; disulfide 1-6) | more dye was extracted from the sites injected with H-CLYHYC-OH |  |  |  |  |  |
| H-QYLYHYCVVD-OH [H-QYLYHYCVVD-OH] | more dye was extracted | more blue dye has accumulated | greatly reduced | greatly reduced | adhesion is decreased between the cells | do not form cobblestone-like monolayers |
| Ac-QYLYHYCVVD-NH2 [acetyl-QYLYHYCVVD-NH2] | more dye was extracted from the sites injected with H-QYLYHYCVVD-OH | more blue dye has accumulated at the sites where the peptide H-QYLYHYCVVD-OH |  |  |  |  |
